Assay results as given in publication PMC10879537 (Nature Communications, 2024).
Where “and” joins values, the source holds several entries; their conditions need not be identical. Equal values may be shown once. Read-outs that look alike come from different tables or passages of the source.

Key:
[1] = system: GX_P2V; experiment: microbe, parasite or virus in culture; type: cell-based, Guangxi pangolin-CoV (GX_P2V)
[2] = system: SARS-CoV-2 pseudotyped virus; experiment: microbe, parasite or virus in culture; type: cell-based
[3] = system: PEDV strain CV777; experiment: microbe, parasite or virus in culture; type: cell-based, porcine epidemic diarrhea virus (PEDV)
[4] = system: SADS-CoV strain CN/GDWT/2017; experiment: cells; type: cell-based, swine acute diarrhoea syndrome coronavirus (SADS-CoV)
[5] = system: SARS-CoV pseudotyped virus; experiment: microbe, parasite or virus in culture; type: cell-based; details: for EC50: read-out: EC50 against SARS-CoV pseudotyped virus
[6] = system: MERS-CoV pseudotyped virus; experiment: microbe, parasite or virus in culture; type: cell-based
[7] = system: GX_P2V; experiment: organism not typed; type: cell-based, Guangxi pangolin-CoV (GX_P2V)
[8] = system: SARS-CoV-2 trVLP; type: cell-based
[9] = system: SARS-CoV-2 trVLP
[10] = in vitro; details: African green monkey
[11] = in vitro; details: human, Caco-2
[12] = in vitro; details: human
[13] = system: SARS-CoV-2 trVLP; experiment: microbe, parasite or virus in culture
[14] = system: Vero E6 cells; experiment: cells; details: Chlorocebus sabaeus, Vero C1008, 48 h, read-out: Cytoxicity (%)
[15] = system: SARS-CoV-2 live virus (SARS-CoV-2/WH-09/human/2020/CHN); experiment: microbe, parasite or virus in culture; type: cell-based
[16] = Vero C1008, 48 h, read-out: Percentage of Inhibition (%)
[17] = Vero C1008, read-out: EC50 against GX_P2V
[18] = Severe acute respiratory syndrome coronavirus 2, read-out: EC50 against SARS-CoV-2 trVLP

COc1cc2c(cc1OC)[C@@H](Cc1ccc(Oc3cc(C[C@@H]4c5cc(OC)c(OC)cc5CCN4C)ccc3O)cc1)N(C)CC2 [Dauricine, dauricine]
inhibition at 1.09691 µM [1, 16]: 10.1% | inhibition at 1.39794 µM [1, 16]: 95.2% | inhibition at 1.69897 µM [1, 16]: 100% | EC50 ([1]; Vero C1008, read-out: EC50 GX_P2V): 15.7 µM | EC50 ([1]; Vero C1008, read-out: EC50 against GX_P2V, repeated experiment): 13.1 µM | EC50 ([2]; Severe acute respiratory syndrome coronavirus 2, read-out: EC50 SARS-CoV-2pseudotypedvirus): 6.58 µM | Percentage of Inhibition (%) [3]: 99.987% | EC50 ([3]; Porcine epidemic diarrhea virus, Huh-7, read-out: EC50 against PEDV): 1.7 µM | Percentage of Inhibition (%) [4]: 99.922% | EC50 ([4]; Huh-7, read-out: EC50 against SADS-CoV): 0.84 µM | EC50 ([5]; Severe acute respiratory syndrome coronavirus): 2.63 µM | EC50 ([6]; Middle East respiratory syndrome-related coronavirus, Huh-7, read-out: EC50 against MERS-CoV pseudotyped virus): 2.13 µM | Stage of the viral life cycle affected (time-of-addition) [7]: superior inhibitory activity during the entry stage compared with the post-entry stage | Time of addition of anti-GX_P2V activity, Full-time [7]: 94.280 and 92.940 and 93.040 | Time of addition of anti-GX_P2V activity, Post-entry [7]: 24.420 and 36.380 and 19.300 | inhibition at 6.25 µM ([7]; Vero C1008, read-out: Inhibition against GX_P2V, full-time treatment): ~100% | Time of addition of anti-SARS-CoV-2 trVLPs activity, Entry [8]: 75.941 and 76.217 and 74.799 | Time of addition of anti-SARS-CoV-2 trVLPs activity, Full-time [8]: 87.622 and 86.812 and 85.889 | Time of addition of anti-SARS-CoV-2 trVLPs activity, Post-entry [8]: 74.686 and 90.971 and 75.807 | SI (SARS-CoV-2 trVLP, Caco 2-N) ([9]; Caco-2): > 17.61 | CC50 at 48 h [10]: > 50 µM | CC50 at 48 h [11]: > 50 µM | CC50 at 48 h [12]: > 25 µM | CC50 ([12]; CC50, cytotoxicity to Huh 7 cells (Fig. 4B, SADS-CoV panel)): > 12.5 µM | EC50 ([13]; Severe acute respiratory syndrome coronavirus 2, read-out: EC50 SARS-CoV-2 trVLP): 2.84 µM

COc1cc2c3cc1Oc1cc(ccc1O)C[C@@H]1c4c(cc(OC)c(O)c4Oc4ccc(cc4)C[C@H]3N(C)CC2)CCN1C [L-curine]
inhibition at 0.49485 µM [1, 16]: 81.4%

COc1cc2c(cc1OC)C(Cc1ccc(O)c(Oc3cc4c(cc3OC)CCN(C)C4Cc3ccc(O)cc3)c1)N(C)CC2 (stereo not drawn) [Liensinine (34), liensinine]
inhibition at 0.193 µM [1, 16]: 93.8% | inhibition at 0.495 µM [1, 16]: 84.2% | inhibition at 0.78 µM [1, 16]: 68.4% | inhibition at 0.796 µM [1, 16]: 74.4% | inhibition at 1.097 µM [1, 16]: 87.3% | inhibition at 1.398 µM [1, 16]: 100% | inhibition at 1.699 µM [1, 16]: 100% | EC50 [1, 17]: 0.7 µM | EC50 [13, 18]: 3.09 µM

COc1ccc2c(c1O)-c1c(O)c(OC)cc3c1[C@H](C2)[N+](C)(C)CC3 [Magnoflorine]
inhibition at 0.79588 µM [1, 16]: 34.7% | cytotoxicity at 0.193125 µM [14]: 3.29% | cytotoxicity at 0.39 µM [14]: 1.03% | cytotoxicity at 0.49485 µM [14]: 8.84% | cytotoxicity at 0.79588 µM [14]: 10.2% | cytotoxicity at 1.09691 µM [14]: 12.2% | cytotoxicity at 1.39794 µM [14]: 15.3% | cytotoxicity at 1.69897 µM [14]: 14.6%

COc1cc(C[C@H]2c3cc(OC)c(OC)c(OC)c3CCN2C)c(Oc2cc3c(cc2OC)-c2c(OC)c(OC)c(OC)c4c2[C@H](C3)N(C)CC4)cc1OC [Methoxyadiantifoline (37), methoxyadiantifoline]
Percentage of Inhibition (%) [1]: 100.000%

COc1ccc(C[C@@H]2c3cc(Oc4cc(C[C@@H]5c6cc(OC)c(OC)cc6CCN5C)ccc4O)c(OC)cc3CCN2C)cc1 [Neferine (33), Neferine]
inhibition at 0.193 µM [1, 16]: 92.5% | inhibition at 0.495 µM [1, 16]: 91.2% | inhibition at 0.796 µM [1, 16]: 91.6% | inhibition at 1.097 µM [1, 16]: 100% | inhibition at 1.398 µM [1, 16]: 100% | inhibition at 1.699 µM [1, 16]: 100% | EC50 [1, 17]: 0.98 µM | EC50 [13, 18]: 6.24 µM

CCC(CC)COC(=O)[C@H](C)N[P@](=O)(OC[C@H]1O[C@@](C#N)(c2ccc3c(N)ncnn23)[C@H](O)[C@@H]1O)Oc1ccccc1 [Remdesivir (30), remdesivir, reference compound]
inhibition at 0.193 µM [1, 16]: 91.6% | inhibition at 0.495 µM [1, 16]: 41.5% | inhibition at 0.796 µM [1, 16]: 90.9% | inhibition at 1.097 µM [1, 16]: 99.8% | inhibition at 1.398 µM [1, 16]: 100% | inhibition at 1.699 µM [1, 16]: 100% | EC50 [1, 17]: 1.64 µM | EC50 ([15]; Severe acute respiratory syndrome coronavirus 2, Vero C1008, read-out: SARS-CoV-2 (Vero E6) EC50): 2.19 µM | cytotoxicity at 0.796 µM [14]: 6.65% | cytotoxicity at 1.097 µM [14]: 10.7% | cytotoxicity at 1.398 µM [14]: 9.43% | cytotoxicity at 1.699 µM [14]: 12.3% | EC50 [13, 18]: 0.11 µM

COc1ccc2cc1Oc1ccc(cc1)CC1c3cc(c(OC)cc3CCN1C)Oc1c(OC)c(OC)c(O)c3c1C(C2)N(C)CC3 (stereo not drawn) [Thalidezine (35), thalidezine]
inhibition at 0.495 µM [1, 16]: 53.4% | inhibition at 0.796 µM [1, 16]: 99.8% | inhibition at 1.097 µM [1, 16]: 100% | inhibition at 1.398 µM [1, 16]: 100% | inhibition at 1.699 µM [1, 16]: 100% | EC50 [1, 17]: 2.74 µM | EC50 [13, 18]: 4.37 µM

COc1ccc2cc3[n+](cc2c1OC)CCc1cc2c(cc1-3)OCO2 [berberine (2), berberine, reference compound]
inhibition at 0.49485 µM [1, 16]: 52.1% | cytotoxicity at 0.193125 µM [14]: 7.94% | cytotoxicity at 0.49485 µM [14]: 11.2%

isotetrandrine
Percentage of Inhibition (%) [1]: 100% | EC50 ([1]; read-out: EC50 GX_P2V): 7.43 µM | EC50 ([2]; read-out: EC50 SARS-CoV-2pseudotypedvirus): 7.32 µM | EC50 ([15]; read-out: SARS-CoV-2 (Vero E6) EC50): 4.47 µM | EC50 ([3]; read-out: EC50 against PEDV): 1.67 µM | EC50 ([4]; read-out: EC50 against SADS-CoV): 3.67 µM | Percentage of Inhibition (%) [5]: 83.000% and 63.000% | EC50 [5]: 4.77 µM | EC50 ([6]; read-out: EC50 against MERS-CoV pseudotyped virus): 3.31 µM | Time of addition of anti-GX_P2V activity, Entry [7]: 64.671 and 52.909 and 54.392 | Time of addition of anti-GX_P2V activity, Full-time [7]: 95.271 and 94.111 and 93.848 | Time of addition of anti-GX_P2V activity, Post-entry [7]: 79.054 and 80.217 and 78.230 | Time of addition of anti-SARS-CoV-2 trVLPs activity, Full-time [8]: 69.205 and 66.812 and 64.054 | Time of addition of anti-SARS-CoV-2 trVLPs activity, Post-entry [8]: 57.048 and 54.613 and 56.353 | EC50 ([9]; read-out: EC50 SARS-CoV-2 trVLP): 2.82 µM
